Our source for the IC50 and Ki values is patent publication US9732094B2, “Arylquinazolines” (Merck Patent GmbH, priority 2013, dated 2017).

The target of one data set is DNA-PK (Homo sapiens (Human), UniProt P78527). The data set can be described thus: DNA-PK assay (biochemical), flashplate 33P-ATP kinase assay. In short, it runs like this:
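Reactions ran in streptavidin-coated flashplates and were halted by 200 mM EDTA, with a further 30 min at room temperature before saline washing.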

The target of data set [1] is DNA-PK phosphorylation at serine 2056 (Homo sapiens (Human), UniProt P78527). The data set can be described thus: DNA-PK phosphorylation at serine 2056 (cellular), bleomycin-treated HCT116 cells, ELISA. The class given is cell-based. The note with it: read-out: IC50 pDNA-PK. In short, it runs like this:
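HCT116 cells grown overnight were co-treated with 10 μM bleomycin and test compound for 6 h at 37 °C. Phospho-DNA-PK was quantified by chemiluminescent ELISA and normalised to total DNA-PKcs signal, with DMSO control as blank.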
In general terms: ELISA stands for enzyme-linked immunosorbent assay.

Another data set concerns the target Kv11.1 (hERG) (Homo sapiens (Human), UniProt Q12809). The data set can be described thus: Kv11.1 (hERG) ion channel activity (patch clamp assay), HEK293 cells transfected with hERG gene. Background: Block of hERG is tested as a sign of cardiac risk.
The mark [2] stands for this setting: cellular DNA-PK phosphorylation at serine 2056, HCT116.
Where [3] appears, read: Ki [Kv1.11 hERG], hERG patch clamp assay (cells without asterisk).
[4] abbreviates: read-out: Ki [Kv1.11 hERG], hERG patch clamp assay (cells without asterisk).
The mark [5] stands for this setting: cellular, HCT116 cells, 10 μM bleomycin, six hours.
Where [6] appears, read: read-out: Ki [Kv1.11 hERG], patch clamp, HEK293 transfected with hERG gene.
Where [7] appears, read: Ki [Kv1.11 hERG], patch clamp, HEK293 transfected with hERG gene.

pIC50, pKi: −log10 of the molar value. Where two headings read alike, the source gives them in different places.

Kv11.1 (hERG), sequence (Q12809 whole entry): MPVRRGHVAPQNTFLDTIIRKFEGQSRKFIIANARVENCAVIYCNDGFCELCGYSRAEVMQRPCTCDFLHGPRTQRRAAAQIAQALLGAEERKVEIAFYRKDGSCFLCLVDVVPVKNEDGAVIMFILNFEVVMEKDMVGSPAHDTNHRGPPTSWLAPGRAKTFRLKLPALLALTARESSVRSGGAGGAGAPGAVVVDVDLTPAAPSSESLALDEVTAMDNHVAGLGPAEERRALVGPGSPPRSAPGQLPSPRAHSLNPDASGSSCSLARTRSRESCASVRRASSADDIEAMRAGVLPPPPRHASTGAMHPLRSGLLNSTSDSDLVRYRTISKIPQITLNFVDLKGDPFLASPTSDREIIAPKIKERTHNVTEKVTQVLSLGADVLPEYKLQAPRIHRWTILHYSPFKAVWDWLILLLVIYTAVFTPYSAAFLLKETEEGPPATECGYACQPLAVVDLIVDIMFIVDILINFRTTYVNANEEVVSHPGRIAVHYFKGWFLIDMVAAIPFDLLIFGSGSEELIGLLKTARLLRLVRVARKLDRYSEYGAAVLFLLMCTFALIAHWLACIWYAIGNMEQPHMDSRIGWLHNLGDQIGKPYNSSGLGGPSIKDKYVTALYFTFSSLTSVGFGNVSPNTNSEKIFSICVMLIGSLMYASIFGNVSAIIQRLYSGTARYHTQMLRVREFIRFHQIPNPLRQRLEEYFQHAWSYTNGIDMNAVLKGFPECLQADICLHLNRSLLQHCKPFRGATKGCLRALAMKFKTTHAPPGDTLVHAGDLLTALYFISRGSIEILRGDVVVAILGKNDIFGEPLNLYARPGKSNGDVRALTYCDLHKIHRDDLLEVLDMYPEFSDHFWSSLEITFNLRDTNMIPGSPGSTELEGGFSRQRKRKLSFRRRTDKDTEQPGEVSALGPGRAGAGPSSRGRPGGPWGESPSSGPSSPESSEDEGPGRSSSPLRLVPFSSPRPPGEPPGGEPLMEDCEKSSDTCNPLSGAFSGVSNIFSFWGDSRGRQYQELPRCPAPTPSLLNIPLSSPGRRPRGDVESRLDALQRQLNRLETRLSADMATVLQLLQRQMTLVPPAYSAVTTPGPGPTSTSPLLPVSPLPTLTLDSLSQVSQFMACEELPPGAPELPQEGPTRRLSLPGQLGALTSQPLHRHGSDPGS

Take `Cn1ncc2c(C(O)c3cc(-c4ncnc5cc(N6CCOCC6)ccc45)ccc3F)ncnc21` (stereo not drawn) [Example 391, [2-Fluoro-5-(7-morpholin-4-yl-quinazolin-4-yl)-phenyl]-(1-methyl-1H-pyrazolo[3,4-d}-pyrimidin-4-yl)-methanol]: the pIC50 (usually −log10 of the IC50, conventionally taken in molar units) on DNA-PK (biochemical DNA-PK assay) is 7.52 to 8.15; in data set [1] (setting [2]) it was 5.30 to 6.30. The pKi – broadly, the Ki on a negative log10 scale, so that one unit is a factor of ten – at Kv11.1 (hERG) (setting [3]) was 4.60 to 4.82.
As for `OC(c1cc(-c2ncnc3cc(N4CCOCC4)ccc23)ccc1Cl)c1ncnc2sccc12` (stereo not drawn) [Example 430, [2-Chloro-5-(7-morpholin-4-yl-quinazolin-4-yl)-phenyl]thieno[2,3-d}-pyrimidin-4-yl-methanol], the figures for the pIC50 (against DNA-PK (biochemical DNA-PK assay); in data set [1] (setting [2])) were 8.15 to 8.52 and greater than 6.30, respectively. The pKi on Kv11.1 (hERG) (setting [4]) is less than 4.60.
On to `OC(c1ccc(F)c(-c2ncnc3cc(N4CCOCC4)ccc23)c1)c1cnccn1` (stereo not drawn) [Example 33, [4-Fluoro-3-(7-morpholin-4-yl-quinazolin-4-yl)phenyl]-pyrazin-2-ylmethanol], for which the pIC50 on DNA-PK (enzymatic, 5 μM ATP) is 7.52 to 8.15; in data set [1] (setting [5]), 4.52 to 5.00. Besides, at Kv11.1 (hERG) (setting [6]), the pKi is greater than 5.00.
For the compound `COc1cnc(C(O)c2ccc(F)c(-c3ncnc4cc(N5CCOCC5)ccc34)c2)nc1` (stereo not drawn) [Example 69, [4-Fluoro-3-(7-morpholin-4-yl-quinazolin-4-yl)phenyl]-(5-methoxypyrimidin-2-yl)methanol], the pIC50 on DNA-PK (enzymatic, 5 μM ATP) is 8.15 to 8.52; in data set [1] (setting [5]), 5.00 to 5.30. Also, the pKi at Kv11.1 (hERG) (setting [6]) was less than 4.60.
For the compound `NC(=O)C(c1cc(-c2ncnc3cc(N4CCOCC4)ccc23)c(F)cc1Cl)c1cccc2nncn12` (stereo not drawn) [Example 298, 2-[2-Chloro-4-fluoro-5-(7-morpholin-4-yl-quinazolin-4-yl)-phenyl]-2-[1,2,4]-triazolo[4,3-a]pyridin-5-ylacetamide], the negative-log IC50 (pIC50) is 7.52 to 8.15 against DNA-PK (biochemical DNA-PK assay) and 4.52 to 5.00 in data set [1] (setting [2]). Moreover, the pKi on Kv11.1 (hERG) (setting [4]) is less than 4.60.
Regarding `OC(c1cc(-c2ncnc3cc(N4CCOCC4)ccc23)c(F)cc1Cl)c1ncnc2ccoc12` (stereo not drawn) [Example 440, [2-Chloro-4-fluoro-5-(7-morpholin-4-yl-quinazolin-4-yl)-phenyl]furo[3,2-d}-pyrimidin-4-yl-methanol], the figures for the pIC50 (at DNA-PK (biochemical DNA-PK assay); in data set [1] (setting [2])) were greater than 8.52 and greater than 6.30, respectively. At Kv11.1 (hERG) (setting [3]), this compound gave a pKi of 4.60 to 4.82.
For `COc1cnc(C(O)c2ccc(F)c(-c3ncnc4cc(N5CCOCC5)ccc34)c2)c(Cl)c1` (stereo not drawn) [Example 31, (3-Chloro-5-methoxy-pyridin-2-yl)-[4-fluoro-3-(7-morpholin-4-yl-quinazolin-4-yl)phenyl]-methanol], the pIC50 at DNA-PK (enzymatic, 5 μM ATP) is greater than 8.52; in data set [1] (setting [5]) it was greater than 6.30. For the same compound, at Kv11.1 (hERG) (setting [7]), the pKi was 4.82 to 5.00.
As for `OC(c1ccc(F)c(-c2ncnc3cc(N4CCOCC4)ccc23)c1)c1ncnc2sccc12` (stereo not drawn) [Example 437, [4-Fluoro-3-(7-morpholin-4-yl-quinazolin-4-yl)-phenyl]thieno[2,3-d}-pyrimidin-4-yl-methanol], the pIC50 was greater than 8.52 against DNA-PK (biochemical DNA-PK assay) and greater than 6.30 in data set [1] (setting [2]). This compound also had a pKi at Kv11.1 (hERG) (setting [3]) of 4.82 to 5.00.
Taken in the same sequence, the figures for `OC(c1cn2ccsc2n1)c1cc(-c2ncnc3cc(N4CCOCC4)ccc23)c(F)cc1F` (stereo not drawn) [Example 474, [2,4-Difluoro-5-(7-morpholin-4-yl-quinazolin-4-yl)-phenyl]imidazo-[2,1-b]thiazol-6-yl-methanol] were less than 7.52, 4.52 to 5.00 and 4.82 to 5.00.
As to `OC(c1ccc(OCC(F)(F)F)nn1)c1cc(-c2ncnc3cc(N4CCOCC4)ccc23)c(F)cc1Cl` (stereo not drawn) [Example 115, [2-Chloro-4-fluoro-5-(7-morpholin-4-yl-quinazolin-4-yl)-phenyl]-[6-(2,2,2-trifluoroethoxy)-pyridazin-3-yl]-methanol], the pIC50 on DNA-PK (enzymatic, 5 μM ATP) was 8.15 to 8.52; in data set [1] (setting [5]), 5.30 to 6.30. Also, the pKi at Kv11.1 (hERG) (setting [7]) is 4.82 to 5.00.
Turning to `COc1cnc(C(O)c2ccc(F)c(-c3ncnc4cc(N5CCOCC5)ccc34)c2)nc1` (stereo not drawn) [Example 67, [4-Fluoro-3-(7-morpholin-4-yl-quinazolin-4-yl)phenyl]-(5-methoxypyrimidin-2-yl)methanol], the pIC50 was 7.52 to 8.15 against DNA-PK (enzymatic, 5 μM ATP) and 5.00 to 5.30 in data set [1] (setting [5]). Also, on Kv11.1 (hERG) (setting [6]), the negative logarithm of the Ki (pKi) was less than 4.60.
Turning to `OC(c1cn2ccnc2cn1)c1cc(-c2ncnc3cc(N4CCOCC4)ccc23)c(F)cc1F` (stereo not drawn) [Example 223, [2,4-Difluoro-5-(7-morpholin-4-yl-quinazolin-4-yl)-phenyl]imidazo-[1,2-a]pyrazin-6-yl-methanol], the pIC50 at DNA-PK (Table 7) was 7.52 to 8.15; in data set [1] (Table 7, HCT116 cells) it was 5.30 to 6.30. Besides, the negative logarithm of the Ki (pKi) at Kv11.1 (hERG) (read-out: Ki [Kv1.11 hERG], Table 7) is less than 4.60.
As for `COc1ccc(C(O)c2cc(-c3ncnc4cc(N5CCOCC5)ccc34)c(F)cc2F)cc1` (stereo not drawn) [Example 120, [2.4-Difluoro-5-(7-morpholin-4-yl-quinazolin-4-yl)-phenyl]-(4-methoxyphenyl)-methanol], the negative logarithm of the IC50 (pIC50) on DNA-PK (enzymatic, 5 μM ATP) was 7.52 to 8.15; in data set [1] (setting [5]), 5.30 to 6.30. Further, the pKi on Kv11.1 (hERG) (setting [6]) was greater than 5.00.
For the compound `Cn1c(C(O)c2cc(-c3ncnc4cc(N5CCOCC5)ccc34)ccc2Cl)cccc1=O` (single isomer, unassigned) [Example 363, 6-{[2-Chloro-5-(7-morpholin-4-yl-quinazolin-4-yl)-phenyl]hydroxy-methyl}-1-methyl-1H-pyridin-2-one], the pIC50 is 7.52 to 8.15 at DNA-PK (biochemical DNA-PK assay) and 5.00 to 5.30 in data set [1] (setting [2]). Besides, at Kv11.1 (hERG) (setting [3]), the negative logarithm of the Ki (pKi) is 4.60 to 4.82.
As for `OC(c1cc(-c2ncnc3cc(N4CCOCC4)ccc23)c(F)cc1F)c1ncnc2c1CCNC2` (stereo not drawn) [Example 387, [2,4-Difluoro-5-(7-morpholin-4-yl-quinazolin-4-yl)-phenyl]-(5,6,7,8-tetrahydropyrido-[3,4-d}pyrimidin-4-yl)-methanol], the results for the pIC50 (against DNA-PK (biochemical DNA-PK assay); in data set [1] (setting [2])) were 7.52 to 8.15 and 5.30 to 6.30, respectively. At Kv11.1 (hERG) (setting [3]), the pKi was 4.60 to 4.82.
Regarding `NC(=O)c1ccc(C(O)c2cc(-c3ncnc4cc(N5CCOCC5)ccc34)c(F)cc2Cl)nn1` (stereo not drawn) [Example 62, 6-{[2-Chloro-4-fluoro-5-(7-morpholin-4-yl-quinazolin-4-yl)phenyl]-hydroxymethyl}-pyridazine-3-carboxylic acid amide], the pIC50 is 8.15 to 8.52 against DNA-PK (enzymatic, 5 μM ATP) and 5.30 to 6.30 in data set [1] (setting [5]). On Kv11.1 (hERG) (setting [6]), the pKi was less than 4.60.
Regarding `COc1nccnc1C(O)c1cc(-c2ncnc3cc(N4CCOCC4)ccc23)c(F)cc1F` (stereo not drawn) [Example 453, [2,4-Difluoro-5-(7-morpholin-4-yl-quinazolin-4-yl)-phenyl]-(3-methoxy-pyrazin-2-yl)-methanol], the figures for the pIC50 (on DNA-PK (biochemical DNA-PK assay); in data set [1] (setting [2])) were 8.15 to 8.52 and greater than 6.30, respectively. On Kv11.1 (hERG) (setting [3]), the pKi was 4.82 to 5.00.
On to `CC(C#N)Oc1ccc(C(O)c2cc(-c3ncnc4cc(N5CCOCC5)ccc34)c(F)cc2Cl)nn1` (stereo not drawn) [Example 101, 2-(6-{[2-Chloro-4-fluoro-5-(7-morpholin-4-yl-quinazolin-4-yl)-phenyl)hydroxy-methyl}pyridazin-3-yloxy)propionitrile], for which the pIC50 against DNA-PK (enzymatic, 5 μM ATP) is greater than 8.52; in data set [1] (setting [5]), greater than 6.30. The compound also gave a pKi at Kv11.1 (hERG) (setting [7]) of 4.82 to 5.00.
`CC(C)(C)Oc1nccnc1C(O)c1ccc(F)c(-c2ncnc3cc(N4CCOCC4)ccc23)c1` (stereo not drawn) [Example 13, (3-tert-Butoxy-pyrazin-2-yl)-[4-fluoro-3-(7-morpholin-4-yl-quinazolin-4-yl)phenyl]-methanol]: the pIC50 is less than 7.52 on DNA-PK (enzymatic, 5 μM ATP) and 4.52 to 5.00 in data set [1] (setting [5]). This compound gave a pKi at Kv11.1 (hERG) (setting [7]) of 4.82 to 5.00.
For the compound `OC(c1cnccn1)c1cc(-c2ncnc3cc(N4CCOCC4)ccc23)c(F)cc1Cl` (stereo not drawn) [Example 34, [2-Chloro-4-fluoro-5-(7-morpholin-4-yl-quinazolin-4-yl)phenyl]-pyrazin-2-ylmethanol], the pIC50 is 7.52 to 8.15 on DNA-PK (enzymatic, 5 μM ATP) and 5.00 to 5.30 in data set [1] (setting [5]). Further, the pKi on Kv11.1 (hERG) (setting [7]) was 4.60 to 4.82.
Take `COc1nccnc1C(O)c1cc(-c2ncnc3cc(N4CCOCC4)cnc23)c(F)cc1Cl` (stereo not drawn) [Example 231, [2-Chloro-4-fluoro-5-(7-morpholin-4-yl-pyrido[3,2-d}-pyrimidin-4-yl)-phenyl]-(3-methoxy-pyrazin-2-yl)-methanol]: the pIC50 at DNA-PK (biochemical DNA-PK assay) was 7.52 to 8.15; in data set [1] (setting [2]), 5.30 to 6.30. Moreover, the negative logarithm of the Ki (pKi) at Kv11.1 (hERG) (setting [4]) was less than 4.60.
The matching figures for `CCn1c(C(O)c2ccc(F)c(-c3ncnc4cc(N5CCOCC5)ccc34)c2)cccc1=O` (stereo not drawn) [Example 398, 1-Ethyl-6-{[4-f1uoro-3-(7-morpholin-4-yl-quinazolin-4-yl)-phenyl]hydroxy-methyl}-1H-pyridin-2-one]: 8.15 to 8.52, 5.30 to 6.30 and less than 4.60.
Regarding `COc1ccc(C(C(N)=O)c2cc(-c3ncnc4cc(N5CCOCC5)ccc34)ccc2Cl)nn1` (stereo not drawn) [Example 310, 2-[2-Chloro-5-(7-morpholin-4-yl-quinazolin-4-yl)-phenyl]-2-(6-methoxy-pyridazin-3-yl)acetamide], the pIC50 is less than 7.52 against DNA-PK (biochemical DNA-PK assay) and 4.52 to 5.00 in data set [1] (setting [2]). The pKi on Kv11.1 (hERG) (setting [3]) was 4.60 to 4.82.
Take `Cc1nccnc1C(O)c1ccc(F)c(-c2ncnc3cc(N4CCOCC4)c(F)cc23)c1` (stereo not drawn) [Example 283, [4-Fluoro-3-(6-fluoro-7-morpholin-4-yl-quinazolin-4-yl)-phenyl]-(3-methyl-pyrazin-2-yl)-methanol]: the pIC50 against DNA-PK (biochemical DNA-PK assay) was 7.52 to 8.15; in data set [1] (setting [2]), 4.52 to 5.00. At Kv11.1 (hERG) (setting [4]), the pKi was less than 4.60.
